Test results: patent US20250179066A1, “ZWITTERIONIC ANTIBACTERIAL COMPOUNDS” (Hoffmann-La Roche Inc., priority 2022, published 2025)

Tested on: Acinetobacter baumannii ATCC17961
Assay: Antimicrobial susceptibility testing: 90% growth inhibitory concentration (IC90) determination
Format: cell-based
Details: Acinetobacter baumannii, ATCC17961, 16 h, 90% growth inhibitory concentration against Acinetobacter baumannii ATCC17961, Iso-Sensitest broth, OD 600 nm over 16 h; read-out: ATCC 17961 IC90
Procedure, shortened: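 Twofold serial dilutions (e.g. 10 to 0.0195 μM final) in Iso-Sensitest broth inoculated at ~5×10^5 CFU/mL, incubated at 35±2° C. OD600 read every minute for 16 h; IC90 is the concentration inhibiting 90% of growth during logarithmic phase.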

IC90 [µM]	Structure (SMILES)
0.217	C[C@@H](O)c1cc2nc(-n3cc(-c4cnc(C(=O)Nc5ccc(C(=O)N6CCN(C(=O)[C@H]7CC[N@+](CC(=O)O)(CC8CNC8)CC7)CC6)c(Cl)c5)n4C)c(C(F)(F)F)n3)ccc2[nH]1 [Example 150, cis-2-[1-(azetidin-3-ylmethyl)-4-[4-[2-chloro-4-[[5-[1-[2-[(1R)-1-hydroxyethyl]-1H-pyrrolo[3,2-b]pyridin-5-yl]-3-(trifluoromethyl)pyrazol-4-yl]-1-methyl-imidazole-2-carbonyl]amino]benzoyl]piperazine-1-carbonyl]piperidin-1-ium-1-yl]acetic acid;formate]
0.403	Cn1c(-c2cn(-c3ccc4[nH]c(CO)cc4n3)nc2C(F)(F)F)cnc1C(=O)Nc1ccc(C(=O)N2CCN(C(=O)[C@H]3CC[N@+](CC(=O)O)(CC4CNC4)CC3)CC2)c(F)c1 [Example 151, cis-2-[1-(azetidin-3-ylmethyl)-4-[4-[2-fluoro-4-[[1-methyl-5-[1-(2-methylol-1H-pyrrolo[3,2-b]pyridin-5-yl)-3-(trifluoromethyl)pyrazol-4-yl]imidazole-2-carbonyl]amino]benzoyl]piperazine-1-carbonyl]piperidin-1-ium-1-yl]acetic acid. 1:1 2,2,2-trifluoroacetate]
0.421	Cc1cc(NC(=O)c2ncc(-c3cn(-c4ccc(N)cc4F)nc3C(F)(F)F)n2C)ccc1C(=O)N1CCN(C(=O)[C@H]2CC[N@+](CC(=O)O)(CC3CNC3)CC2)CC1 [Example 152, cis-2-[4-[4-[4-[[5-[1-(4-amino-2-fluoro-phenyl)-3-(trifluoromethyl)pyrazol-4-yl]-1-methyl-imidazole-2-carbonyl]amino]-2-methyl-benzoyl]piperazine-1-carbonyl]-1-(azetidin-3-ylmethyl)piperidin-1-ium-1-yl]acetic acid. 1:1 2,2,2-trifluoroacetate]
0.384	Cc1cc(NC(=O)c2ncc(-c3cn(-c4ccc5[nH]c(CO)cc5n4)nc3C(F)(F)F)n2C)ccc1C(=O)N1CCN(C(=O)[C@H]2CC[N@+](CC(=O)O)(CC3CNC3)CC2)CC1 [Example 153, cis-2-[1-(azetidin-3-ylmethyl)-4-[4-[2-methyl-4-[[1-methyl-5-[1-(2-methylol-1H-pyrrolo[3,2-b]pyridin-5-yl)-3-(trifluoromethyl)pyrazol-4-yl]imidazole-2-carbonyl]amino]benzoyl]piperazine-1-carbonyl]piperidin-1-ium-1-yl]acetic acid. 1:1 2,2,2-trifluoroacetate]
0.172	Cn1c(-c2cn(-c3cc4[nH]c(CCO)cc4cn3)nc2C(F)(F)F)cnc1C(=O)Nc1ccc(C(=O)N2CCN(C(=O)[C@H]3CC[N@+](CC(=O)O)(CC4CNC4)CC3)CC2)c(Cl)c1 [Example 154, cis-2-[1-(azetidin-3-ylmethyl)-4-[4-[2-chloro-4-[[5-[1-[2-(2-hydroxyethyl)-1H-pyrrolo[3,2-c]pyridin-6-yl]-3-(trifluoromethyl)pyrazol-4-yl]-1-methyl-imidazole-2-carbonyl]amino]benzoyl]piperazine-1-carbonyl]piperidin-1-ium-1-yl]acetic acid;formate]
0.329	Cn1c(-c2cn(-c3cc4[nH]cc(C(=O)N5CC[C@H](O)C5)c4cn3)nc2C(F)(F)F)cnc1C(=O)Nc1ccc(C(=O)N2CCN(C(=O)[C@H]3CC[N@+](CC(=O)O)(CC4CNC4)CC3)CC2)c(Cl)c1 [Example 155, cis-2-[1-(azetidin-3-ylmethyl)-4-[4-[2-chloro-4-[[5-[1-[3-[(3S)-3-hydroxypyrrolidine-1-carbonyl]-1H-pyrrolo[3,2-c]pyridin-6-yl]-3-(trifluoromethyl)pyrazol-4-yl]-1-methyl-imidazole-2-carbonyl]amino]benzoyl]piperazine-1-carbonyl]piperidin-1-ium-1-yl]acetic acid. 1:1 2,2,2-trifluoroacetate]
0.156	CNC(=O)c1c[nH]c2cc(-n3cc(-c4cnc(C(=O)Nc5ccc(C(=O)N6CCN(C(=O)[C@H]7CC[N@+](CC(=O)O)(CC8CNC8)CC7)CC6)c(Cl)c5)n4C)c(C(F)(F)F)n3)ncc12 [Example 156, cis-2-[1-(azetidin-3-ylmethyl)-4-[4-[2-chloro-4-[[1-methyl-5-[1-[3-(methylcarbamoyl)-1H-pyrrolo[3,2-c]pyridin-6-yl]-3-(trifluoromethyl)pyrazol-4-yl]imidazole-2-carbonyl]amino]benzoyl]piperazine-1-carbonyl]piperidin-1-ium-1-yl]acetic acid. 1:1 2,2,2-trifluoroacetate]
0.368	Cn1c(-c2cn(-c3cc4[nH]cc(C(N)=O)c4cn3)nc2C(F)(F)F)cnc1C(=O)Nc1ccc(C(=O)N2CCN(C(=O)[C@H]3CC[N@+](CC(=O)O)(CC4CNC4)CC3)CC2)c(Cl)c1 [Example 157, cis-2-[1-(azetidin-3-ylmethyl)-4-[4-[4-[[5-[1-(3-carbamoyl-1H-pyrrolo[3,2-c]pyridin-6-yl)-3-(trifluoromethyl)pyrazol-4-yl]-1-methyl-imidazole-2-carbonyl]amino]-2-chloro-benzoyl]piperazine-1-carbonyl]piperidin-1-ium-1-yl]acetic acid. 1:1 2,2,2-trifluoroacetate]
0.783	CN(C)S(=O)(=O)n1c(CCO)cc2cnc(-n3cc(-c4cnc(C(=O)Nc5ccc(C(=O)N6CCN(C(=O)[C@H]7CC[N@+](CC(=O)O)(CC8CNC8)CC7)CC6)c(Cl)c5)n4C)c(C(F)(F)F)n3)cc21 [Example 158, cis-2-[1-(azetidin-3-ylmethyl)-4-[4-[2-chloro-4-[[5-[1-[1-(dimethylsulfamoyl)-2-(2-hydroxyethyl)pyrrolo[3,2-c]pyridin-6-yl]-3-(trifluoromethyl)pyrazol-4-yl]-1-methyl-imidazole-2-carbonyl]amino]benzoyl]piperazine-1-carbonyl]piperidin-1-ium-1-yl]acetic acid;formate]
0.647	Cn1c(-c2cn(-c3ccc(N)cc3F)nc2C(F)(F)F)cnc1C(=O)Nc1ccc(C(=O)N2CCN(C(=O)C3CC[N+](CCCO)(CC(=O)O)CC3)CC2)c(Cl)c1 (stereo not shown) [Example 159, 2-[4-[4-[4-[[5-[1-(4-amino-2-fluoro-phenyl)-3-(trifluoromethyl)pyrazol-4-yl]-1-methyl-imidazole-2-carbonyl]amino]-2-chloro-benzoyl]piperazine-1-carbonyl]-1-(3-hydroxypropyl)piperidin-1-ium-1-yl]acetic acid. 1:1 2,2,2-trifluoroacetate]
0.474	Cn1c(-c2cn(-c3ccc4[nH]c(C[C@H](O)CO)cc4n3)nc2C(F)(F)F)cnc1C(=O)Nc1ccc(C(=O)N2CCN(C(=O)[C@H]3CC[N@+](CC(=O)O)(CC4CNC4)CC3)CC2)c(Cl)c1 [Example 160, cis-2-[1-(azetidin-3-ylmethyl)-4-[4-[2-chloro-4-[[5-[1-[2-[(2S)-2,3-dihydroxypropyl]-1H-pyrrolo[3,2-b]pyridin-5-yl]-3-(trifluoromethyl)pyrazol-4-yl]-1-methyl-imidazole-2-carbonyl]amino]benzoyl]piperazine-1-carbonyl]piperidin-1-ium-1-yl]acetic acid;formate]
0.39	CC(Cn1ccc2nc(-n3cc(-c4cnc(C(=O)Nc5ccc(C(=O)N6CCN(C(=O)[C@H]7CC[N@+](CC(=O)O)(CC8CNC8)CC7)CC6)c(Cl)c5)n4C)c(C(F)(F)F)n3)ccc21)C(N)=O (stereo partly shown) [Example 161, 2-[4-[4-[4-[[5-[1-[1-(3-amino-2-methyl-3-oxo-propyl)pyrrolo[3,2-b]pyridin-5-yl]-3-(trifluoromethyl)pyrazol-4-yl]-1-methyl-imidazole-2-carbonyl]amino]-2-chloro-benzoyl]piperazine-1-carbonyl]-1-(azetidin-3-ylmethyl)piperidin-1-ium-1-yl]acetic acid;2,2,2-trifluoroacetate]
0.203	Cn1c(-c2cn(-c3ccc4[nH]c(CCO)cc4n3)nc2C(F)(F)F)cnc1C(=O)Nc1ccc(C(=O)N2CCN(C(=O)[C@H]3CC[N@+](CC(=O)O)(CC4CNC4)CC3)CC2)c(Cl)c1 [Example 162, cis-2-[1-(azetidin-3-ylmethyl)-4-[4-[2-chloro-4-[[5-[1-[2-(2-hydroxyethyl)-1H-pyrrolo[3,2-b]pyridin-5-yl]-3-(trifluoromethyl)pyrazol-4-yl]-1-methyl-imidazole-2-carbonyl]amino]benzoyl]piperazine-1-carbonyl]piperidin-1-ium-1-yl]acetic acid;formate]
0.19	Cn1c(-c2cn(-c3ccc(O)cc3F)nc2C(F)(F)F)cnc1C(=O)Nc1ccc(C(=O)N2CCN(C(=O)[C@H]3CC[N@+](CC(=O)O)(CC4CNC4)CC3)CC2)c(Cl)c1 [Example 163, cis-2-[1-(azetidin-3-ylmethyl)-4-[4-[2-chloro-4-[[5-[1-(2-fluoro-4-hydroxy-phenyl)-3-(trifluoromethyl)pyrazol-4-yl]-1-methyl-imidazole-3-carbonyl]amino]benzoyl]piperazine-1-carbonyl]piperidin-1-ium-1-yl]acetic acid. 1:1 2,2,2-trifluoroacetate]
0.163	Cn1c(-c2cn(-c3ccc(NCC(C)(C)O)cc3F)nc2C(F)(F)F)cnc1C(=O)Nc1ccc(C(=O)N2CCN(C(=O)[C@H]3CC[N@+](CC(=O)O)(CC4CNC4)CC3)CC2)c(Cl)c1 [Example 164, cis-2-[1-(azetidin-3-ylmethyl)-4-[4-[2-chloro-4-[[5-[1-[2-fluoro-4-[(2-hydroxy-2-methyl-propyl)amino]phenyl]-3-(trifluoromethyl)pyrazol-4-yl]-1-methyl-imidazole-2-carbonyl]amino]benzoyl]piperazine-1-carbonyl]piperidin-1-ium-1-yl]acetic acid;formate]
0.649	Cn1c(-c2cn(-c3ncc4[nH]ccc4n3)nc2C(F)(F)F)cnc1C(=O)Nc1ccc(C(=O)N2CCN(C(=O)[C@H]3CC[N@+](CC(=O)O)(CC4CNC4)CC3)CC2)c(Cl)c1 [Example 165, cis-2-[1-(azetidin-3-ylmethyl)-4-[4-[2-chloro-4-[[1-methyl-5-[1-(5H-pyrrolo[3,2-d]pyrimidin-2-yl)-3-(trifluoromethyl)pyrazol-4-yl]imidazole-2-carbonyl]amino]benzoyl]piperazine-1-carbonyl]piperidin-1-ium-1-yl]acetic acid;formate]
